Laboratory results published in ChEMBL document CHEMBL3351747, “Structure-based design of β1i or β5i specific inhibitors of human immunoproteasomes” (J Med Chem, 2014).

Tests used:
Raji = assay: Ratio of IC50 for 20s proteasome subunit beta-1c to IC50 for proteasome subunit beta-1i in human Raji cells; type: cell-based
[1] = target: T1, Proteasome subunit beta type-10 (Homo sapiens, UniProt P40306); assay: Inhibition of proteasome subunit beta-2i in human Raji cells using BODIPY- epoxomicin by fluorescent densitometry; type: cell-based
T1 sequence (P40306 whole entry): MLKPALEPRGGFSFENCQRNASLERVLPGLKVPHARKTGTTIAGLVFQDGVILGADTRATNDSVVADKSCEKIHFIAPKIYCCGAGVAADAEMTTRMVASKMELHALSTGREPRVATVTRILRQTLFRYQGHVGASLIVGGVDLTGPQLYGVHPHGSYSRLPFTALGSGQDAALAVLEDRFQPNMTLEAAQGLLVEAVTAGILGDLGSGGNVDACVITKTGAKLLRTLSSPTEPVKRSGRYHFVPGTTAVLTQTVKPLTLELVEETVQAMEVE

[2] = Inhibition of 20s proteasome subunit beta-1c in human Raji cells using BODIPY- epoxomicin by fluorescent densitometry; type: cell-based
[3] = target: T2, Proteasome subunit beta type-9 (Homo sapiens, UniProt P28065); assay: Inhibition of proteasome subunit beta-1i in human Raji cells using BODIPY- epoxomicin by fluorescent densitometry; type: cell-based
T2 sequence (P28065 whole entry): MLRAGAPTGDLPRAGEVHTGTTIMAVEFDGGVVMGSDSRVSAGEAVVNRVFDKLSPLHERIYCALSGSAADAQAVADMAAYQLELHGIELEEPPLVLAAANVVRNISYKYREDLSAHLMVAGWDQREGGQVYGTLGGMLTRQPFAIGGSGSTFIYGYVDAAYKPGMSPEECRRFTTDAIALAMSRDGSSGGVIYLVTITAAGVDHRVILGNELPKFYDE

[4] = target: T3, Proteasome subunit beta type-8 (Homo sapiens, UniProt P28062); assay: Inhibition of proteasome subunit beta-5i in human Raji cells using BODIPY-NC005 by fluorescent densitometry; type: cell-based
T3 sequence (P28062 whole entry): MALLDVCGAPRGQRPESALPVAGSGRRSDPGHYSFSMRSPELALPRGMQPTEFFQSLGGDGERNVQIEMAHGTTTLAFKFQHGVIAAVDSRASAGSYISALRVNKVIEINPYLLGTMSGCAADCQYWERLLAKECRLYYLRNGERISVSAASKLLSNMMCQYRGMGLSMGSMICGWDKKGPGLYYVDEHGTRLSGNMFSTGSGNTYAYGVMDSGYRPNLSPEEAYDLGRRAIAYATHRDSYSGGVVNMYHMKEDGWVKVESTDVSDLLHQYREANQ

[5] = Inhibition of 20s proteasome subunit beta-5c in human Raji cells using BODIPY-NC005 by fluorescent densitometry; type: cell-based
[6] = target: T3, Proteasome subunit beta type-8; assay: Inhibition of proteasome subunit beta-5i in human RPMI8226 cells using BODIPY-NC005 by fluorescent densitometry; type: cell-based, RPMI-8226
[7] = target: T1, Proteasome subunit beta type-10; assay: Inhibition of proteasome subunit beta-2i in human RPMI8226 cells using BODIPY-epoxomicin by fluorescent densitometry; type: cell-based, RPMI-8226
[8] = Inhibition of 20s proteasome subunit beta-2c in human RPMI8226 cells using BODIPY-epoxomicin by fluorescent densitometry; type: cell-based; details: rpmi-8226
[9] = Inhibition of 20s proteasome subunit beta-1c in human RPMI8226 cells using BODIPY-NC001 by fluorescent densitometry; type: cell-based; details: rpmi-8226
[10] = Inhibition of 20s proteasome subunit beta-5c in human RPMI8226 cells using BODIPY-NC005 by fluorescent densitometry; type: cell-based; details: rpmi-8226
[11] = target: T2, Proteasome subunit beta type-9; assay: Inhibition of proteasome subunit beta-1i in human RPMI8226 cells using BODIPY-NC001 by fluorescent densitometry; type: cell-based, RPMI-8226
[12] = Inhibition of 20s proteasome subunit beta-2c in human Raji cells using BODIPY- epoxomicin by fluorescent densitometry; type: cell-based

| Structure (SMILES) | Ratio IC50 (Raji) | IC50 [1] | IC50 [2] | IC50 [3] | IC50 [4] | IC50 [5] | IC50 [6] | IC50 [7] | IC50 [8] | IC50 [9] | IC50 [10] | IC50 [11] | IC50 [12] |
| --- | --- | --- | --- | --- | --- | --- | --- | --- | --- | --- | --- | --- | --- |
| CCCC[C@H](NC(=O)[C@@H]1CCCN1C(=O)[C@H](C)NC(=O)CN=[N+]=[N-])C(=O)N[C@@H](Cc1ccccc1)C(=O)[C@@]1(C)CO1 | 9 | > 100 µM | 0.58 µM | 0.066 µM |  |  |  |  |  |  |  |  |  |
| COc1ccc(C[C@H](NC(=O)[C@@H](C)NC(=O)CN2CCOCC2)C(=O)N[C@@H](Cc2ccc(-c3ccccc3)cc2)C(=O)[C@@]2(C)CO2)cc1 |  |  |  |  | 0.0012 µM | 0.0099 µM |  |  |  |  |  |  |  |
| CCCCCCC(=O)N[C@@H](C)C(=O)N[C@@H](CC(C)C)C(=O)[C@@]1(CO[Si](C)(C)C(C)(C)C)CO1 | 144 | 25 µM | 15 µM | 0.104 µM |  |  |  |  |  |  |  |  |  |
| CCCC[C@H](NC(=O)[C@@H]1CCCN1C(=O)[C@H](C)NC(=O)CN=[N+]=[N-])C(=O)N[C@@H](CC1CCCCC1)C(=O)[C@@]1(C)CO1 | 39 | > 30 µM | 3.4 µM | 0.087 µM |  |  |  |  |  |  |  |  |  |
| CCCC[C@H](NC(=O)[C@@H]1CSCN1C(=O)[C@H](C)NC(=O)CN=[N+]=[N-])C(=O)N[C@@H](CC(C)C)C(=O)[C@@]1(C)CO1 | 6.5 |  | 0.24 µM | 0.068 µM |  |  |  |  |  |  |  |  |  |
| C[C@@H](NC(=O)CN1CCOCC1)C(=O)N[C@@H](Cc1c[nH]c2ccccc12)C(=O)N[C@@H](Cc1ccc(-c2ccccc2)cc1)C(=O)[C@@]1(C)CO1 |  |  |  |  | 0.0021 µM | 0.014 µM |  |  |  |  |  |  |  |
| COc1ccc(C[C@H](NC(=O)[C@H](C)NC(=O)CN2CCOCC2)C(=O)N[C@H](/C=C/S(C)(=O)=O)Cc2ccccc2)cc1 |  |  |  |  | 0.392 µM | 14 µM |  |  |  |  |  |  |  |
| COc1ccc(C[C@H](NC(=O)[C@H](C)NC(=O)C2=C(C)c3ccccc3C2)C(=O)N[C@@H](Cc2ccc(-c3ccccc3)cc2)C(=O)[C@@]2(C)CO2)cc1 |  |  |  |  | 0.0014 µM | 0.0126 µM |  |  |  |  |  |  |  |
| CCCC[C@H](NC(=O)[C@@H]1C[C@H](F)CN1C(=O)[C@H](C)NC(=O)CN=[N+]=[N-])C(=O)N[C@@H](CC(C)C)C(=O)[C@@]1(C)CO1 | 2.3 |  | 0.51 µM | 0.22 µM |  |  |  |  |  |  |  |  |  |
| CC1=C(C(=O)N[C@H](C)C(=O)N[C@@H](Cc2c[nH]c3ccccc23)C(=O)N[C@H](/C=C/S(C)(=O)=O)CC2CCCCC2)Cc2ccccc21 |  |  |  |  | 0.632 µM | 62 µM |  |  |  |  |  |  |  |
| CC1=C(C(=O)N[C@H](C)C(=O)N[C@@H](Cc2c[nH]c3ccccc23)C(=O)N[C@@H](Cc2ccccc2)C(=O)[C@@]2(C)CO2)Cc2ccccc21 |  | > 10 µM | > 10 µM | 1.84 µM | 0.0025 µM | 0.227 µM | 0.025 µM | > 100 µM | > 100 µM | > 100 µM | 2.9 µM | 3.5 µM | > 10 µM |
| COc1ccc(C[C@H](NC(=O)[C@@H](C)NC(=O)C2=C(C)c3ccccc3C2)C(=O)N[C@@H](Cc2ccc(-c3ccccc3)cc2)C(=O)[C@@]2(C)CO2)cc1 |  |  |  |  | 0.0033 µM | 0.043 µM |  |  |  |  |  |  |  |
| COc1ccc(C[C@H](NC(=O)[C@@H](C)NC(=O)C2=C(C)c3ccccc3C2)C(=O)N[C@@H](CC2CCCCC2)C(=O)[C@@]2(C)CO2)cc1 |  | > 10 µM | > 10 µM | > 10 µM | 0.011 µM | 5.5 µM | 0.37 µM | > 100 µM | > 100 µM | > 100 µM | > 100 µM | > 100 µM | > 10 µM |
| CCCC[C@H](NC(=O)[C@@H]1CC(F)(F)CN1C(=O)[C@H](C)NC(=O)CN=[N+]=[N-])C(=O)N[C@@H](Cc1ccccc1)C(=O)[C@@]1(C)CO1 | 114 | > 100 µM | 4.8 µM | 0.042 µM |  |  |  |  |  |  |  |  |  |
| COc1ccc(C[C@H](NC(=O)[C@H](C)NC(=O)CN2CCOCC2)C(=O)N[C@@H](CC2CCCCC2)C(=O)[C@@]2(C)CO2)cc1 |  |  |  | 0.3 µM | 0.0066 µM |  | 0.044 µM |  |  |  |  | 0.37 µM |  |
| COc1ccc(C[C@H](NC(=O)[C@H](C)NC(=O)CN2CCOCC2)C(=O)N[C@@H](Cc2ccccc2)C(=O)[C@@]2(C)CO2)cc1 |  |  | > 10 µM |  |  | 0.054 µM |  |  | 1.1 µM | > 5 µM | 0.18 µM |  | 1.1 µM |
| C[C@@H](NC(=O)CN1CCOCC1)C(=O)N[C@@H](Cc1c[nH]c2ccccc12)C(=O)N[C@@H](CC1CCCCC1)C(=O)[C@@]1(C)CO1 |  | > 10 µM | > 10 µM | > 10 µM | 0.032 µM | 0.827 µM | 0.059 µM | > 10 µM | > 10 µM | > 10 µM | 2.9 µM | 6.2 µM | > 10 µM |
